A short description of series [1]: Microsomal metabolic stability, mouse. The series is classed as in vitro ADME.
Series [2] is described as follows: Aqueous kinetic solubility pH 7.4. The series is classed as physicochemical. To be noted: for solubility kinetic: PBS pH 7.4.
The subject of series [3] is S. cerevisiae wild type parental AD1-9 strain. Description: Yeast growth inhibition on glycerol medium, wild type. The series is classed as cell-based, Saccharomyces cerevisiae. As to conditions: 1 mM, 100, 5 and 1 μM. Here is the method: Three S. cerevisiae strains were used: M221Q and M221F cytochrome b mutants and wild type. They share the same nuclear genetic background deriving from AD1-9 (kindly given by M. Ghislain, UCL, Belgium). AD1-9 harbors multiple deletions in the ABC transporter genes that render the strain more sensitive to drugs than standard yeast strains^S65.
Protocol: Yeast strains were grown over 48 hours at 33° C. in liquid YPG medium [1% yeast extract, 2% (wt/vol) peptone, and 3% (vol/vol) glycerol). Cultures were diluted to an OD600 of 0.05 and grown for 2 hrs. Cultures were then combined with YPG containing 6% melted agar for a total volume of 15-20 mL and poured onto OmniTray single-well rectangular plates that measured 86 mm by 128 mm (ThermoScientific). Filter paper disks (7 mm diameter, […]) were placed onto the cooled agar plates. […] A single disk with DMSO on each plate was used as a control. Plates were incubated at 33° C. Images were obtained after 4 days using GelDoc XR Imaging System (BioRad) and Quantity One software. Drug effect was assessed by the presence and size of a zone of inhibition around the disks.

Series [4] relates to T. gondii bradyzoites (EGS strain). Briefly: EGS strain bradyzoite assay (cysts in HFF, dolichos/BAG1 staining). The series is classed as cell-based, Toxoplasma gondii. As to the method:
(§1) HFF cells were grown in IMDM (1×, [+] glutamine, [+] 25 mM HEPES, [+] Phenol red, 10% FBS, [Gibco, Denmark]) on removable, sterile glass disks in the bottom of a clear, flat-bottomed 24-well plate. Cultures were infected with 3×10^4 parasites (EGS strain) per well, in 0.5 mL media and plate was returned to incubator at 37° C. overnight. The following day, the media was removed and clear IMDM and compounds were added to making various concentrations of the drug, to a total volume of 0.5 mL. Two wells were filled with media only, as a control. Plates were returned to the 37° C. incubator for 72 hours.
Efficacy was determined following fixation. Staining was used to determine the numbers of cysts in cultures without and with treatment with the test compounds. Cells were fixed using 4% paraformaldehyde and stained with Fluorescein-labeled Dolichos Biflorus Agglutinin, DAPI, and anti-BAG1, and anti-SAG1. Disks were removed and mounted onto glass slides and visualized using microscopy (Nikon Tl7). Slides were also scanned using a CRi Pannoramic Scan Whole Slide Scanner and viewed using Panoramic Viewer Software.
as §1, with “[gibco,” for “[Gibco,”, “2” for “Two”, “72 hours, and checked once every 24” for “72”, “hours. If tachyzoites were visible in the control before 72 hours, the cells were fixed and stained.” for “hours.”
Cells were fixed using 4% paraformaldehyde and stained with Fluorescein-labeled Dolichos Biflorus Agglutinin, DAPI, and BAG1. Disks were removed and mounted onto glass slides and visualized using microscopy (Nikon Tl7). Slides were scanned using a CRi Pannoramic Scan Whole Slide Scanner and viewed using Panoramic Viewer Software. Effects of the compounds were quantified by counting cysts in the controls and treated cells. Cysts and persisting organisms were counted in a representative field of view and then multiplied by a factor determined by the total area of the disk in order to estimate the number of cysts and organisms in each condition.
HFF cells were grown in IMDM (1×, [+] glutamine, [+] 25 mM HEPES, [+] Phenol red, 10% FBS, [gibco, Denmark]) on removable, sterile glass disks in the bottom of a clear, flat-bottomed 24-well plate. Cultures were infected with 3×10^4 parasites (EGS strain) per well, in 0.5 mL media and plate was returned to incubator at 37° C. overnight. The following day, the media was removed and clear IMDM and compounds were added to making various concentrations of the drug, to a total volume of 0.5 mL. 2 wells were filled with media only, as a control. Plates were returned to the 37° C. incubator for 72 hours, and checked once every 24 hours. If tachyzoites were visible in the control before 72 hours, the cells were fixed and stained. Cells were fixed using 4% paraformaldehyde and stained with Fluorescein-labeled Dolichos Biflorus Agglutinin, DAPI, and BAG1. Disks were removed and mounted onto glass slides and visualized using microscopy (Nikon Tl7). Slides were scanned using a CRi Pannoramic Scan Whole Slide Scanner and viewed using Panoramic Viewer Software. Effects of the compounds were quantified by counting cysts in the controls and treated cells. Cysts and persisting organisms were counted in a representative field of view and then multiplied by a factor determined by the total area of the disk in order to estimate the number of cysts and organisms in each condition. Data was collected using Gen5 software. IC50 was calculated by graphical analysis in Excel.

The next series is described as follows: FaSSIF solubility pH 6.5. The series is classed as physicochemical. To be noted: pH 6.5.
A short description of series [5]: Cytotoxicity assay with WST-1 in HFF. In kind it is cell-based. As to conditions: human, human foreskin fibroblasts (HFF); read-out: HFF Toxicity CC50. Here is the method: (§2) Toxicity assays were conducted using WST-1 cell proliferation reagent (Roche). HFF were grown on a flat, clear-bottomed, black 96-well plate. Confluent HFF were treated with inhibitory compounds at concentrations equal to those being tested in challenge assays. Compounds were diluted in IMDM-C, and 20 μl were added to each designated well, with triplicates for each condition. A gradient of 2 fold-decreasing concentrations of DMSO in clear IMDM-C was used as a control. The plate was incubated for 72 hours at 37° C. 10 μl of WST-1 reagent (Roche) were added to each well and the cells were incubated for 30 to 60 minutes. Absorbance was read using a fluorometer at 420 nm. A higher degree of color change (and absorbance) indicated mitochondrial activity and cell viability.
as §2, with “(Roche) as described in Fomovska, et. al. (18,19).” for “(Roche).”, “of 10 μM and 50 μM.” for “equal to those being tested in challenge assays.”, “DMSO from 10% to 0%” for “DMSO”, “fluorimeter” for “fluorometer”
Background: Formazan colour is commonly taken as a measure of viable cells.

The nature of series [6]: Microsomal metabolic stability, human. In kind it is in vitro ADME.
For series [7], the system named is P. falciparum strains D6, TM91-C235, W2, C2B. Briefly: Malaria SYBR Green I-Based Fluorescence (MSF) Assay. The series is classed as cell-based, Plasmodium falciparum. To be noted: Plasmodium falciparum, read-out: P. falciparum IC50. Here is the method: Testing of P. falciparum: D6 is a drug sensitive strain from Sierra Leone, C235 is a multi-drug resistant strain from Thailand, W2 is a chloroquine resistant strain from Thailand, and C2B has resistance to a variety of drugs including atovaquone.
D6 is a drug sensitive strain from Sierra Leone, C235 is a multi-drug resistant strain from Thailand, W2 is a chloroquine resistant strain from Thailand, and C2B has resistance to a variety of drugs including atovaquone. These assays were performed as described.
(§3) Compound activity against P. falciparum, a causative agent of malaria, was tested using the Malaria SYBR Green I—Based Fluorescence (MSF) Assay. This; microtiter plate drug sensitivity assay uses the presence of malarial DNA as a measure of parasitic proliferation in the presence of antimalarial drugs or experimental compounds based on modifications of previously described methods by Plouffe et al (20) and Johnson et al. As the intercalation of SYBR Green I dye and its resulting fluorescence is relative to parasite growth, a test compound that inhibits the growth of the parasite will result in a lower fluorescence.
Selected compounds were examined for activity against four strains of P. falciparum: D6 (CDC/Sierra Leone), a drug-sensitive strain readily killed by chloroquine, TM91-C235, a multi-drug resistant strain resistant to chloroquine, W2, a chloroquine resistant strain from Thailand, and C2B has resistance to a variety of drugs including atovaquone.
D6 is a drug sensitive strain from Sierra Leone, C235 is a multi-drug resistant strain from Thailand, W2 is a chloroquine resistant strain from Thailand, and C2B has resistance to a variety of drugs including atovaquone. These assays were performed using standard protocols.
as §3, with “known in the art.” for “by Plouffe et al (20) and Johnson et al.”, “fluorescence. Selected compounds were examined for activity against four strains of P. falciparum: D6 (CDC/Sierra Leone), a drugsensitive strain readily killed by chloroquine, TM91-C235, a multi-drug resistant strain resistant to chloroquine, W2, a chloroquine resistant strain from Thailand, and C2B has resistance to a variety of drugs including atovaquone.” for “fluorescence.”

The next series is described as follows: in vitro. In kind it is in vitro ADME. To be noted: dog, MDCK-MDR1.
A further series concerns MDR1. Description: in vitro. To be noted: dog, MDCK-MDR1, MDCK-MDR1 Efflux Ratio. In kind it is in vitro ADME.
For series [8], the system named is human foreskin fibroblasts (HFF). Description: Cytotoxicity assay with WST-1 in HFF. The series is classed as cell-based. To be noted: 10 μM and 50 μM, WST-1. Here is the method:
as §2
as §2, with “(Roche) as described in Fomovska, et. al. (18,19).” for “(Roche).”, “of 10 μM and 50 μM.” for “equal to those being tested in challenge assays.”, “DMSO from 10% to 0%” for “DMSO”, “fluorimeter” for “fluorometer”

For another series, the system named is RH-YFP. Description: Assessment of compound degradation and microbicidal effect on Toxoplasma. The series is classed as cell-based, Toxoplasma gondii. Here is the method:
HFF were cultured in a 96-well plate and infected with RH-YFP as described above on Day 0, 20 μL of compound was added to 9 wells for each compound and concentration (3 conditions, 3 wells per condition). In condition I, media was removed and replaced with fresh media on Day 3. In condition II, media was removed and replaced with fresh media and more compound on Day 3. In condition III, media was not replaced on Day 3, nor was the compound refreshed. On Day 6, media was removed and replaced with clean media in all wells. On Day 3, 6, and 9 plate was read in the fluorimeter and analyzed graphically in Prism (GraphPad Software).

Values after ≈ are worked out from the molar mass of the structure shown. Values joined by “and” are separate entries in the source; they are usually repeats but may differ in a detail not shown here. Equal values may be shown once. “Also recorded” adds a separate entry of the source. Read-outs that look alike come from different tables or passages of the source.

These results are taken from patent US11414385B2, “Compounds and methods for treating, detecting, and identifying compounds to treat apicomplexan parasitic diseases” (The University of Chicago, priority 2015, dated 2022).

In general, solubility refers to the dissolved amount per volume that the medium holds. Read a low solubility as a poorly soluble substance. The term CC50 denotes the concentration that lowers cell viability or growth by half. In general, kinetic solubility refers to the concentration staying in solution when a stock, usually in DMSO, is diluted into the medium. Broadly, the IC50 is the point on the concentration scale where inhibition reaches its midpoint. A word on the Papp A→B: it is how fast a substance crosses the layer from the apical side. Read a high Papp A→B as fast passage. A word on the efflux ratio: it is a quotient of directional permeabilities that is used to spot active efflux.

For `Cc1[nH]c2ccccc2c(=O)c1-c1ccc(Oc2ccc(OC(F)(F)F)cc2)cc1` [ELQ271, 2-methyl-3-(4-(4-(trifluoromethoxy)phenoxy)phenyl) quinolin-4(1H)-one, reference compound], the “Mouse liver microsomes T1/2” value in series [1] amounted to 7.4688 h. For the same molecule, the solubility in series [2] (aqueous buffer, kinetic from dmso stock, 100 mM Phosphate Buffer (pH 7.4)) came to 0.15 µM (≈ 0.0617 µg/mL). Besides, the “growth inhibition of wild type yeast” value in [3] is “effective”. In addition, the “reduction of EGS cysts in vitro” value in [4] (10 μM) is reported as “reduce the EGS cysts; also recorded: inhibited EGS in vitro”.
`Cc1[nH]c2ccccc2c(=O)c1-c1ccc(Oc2ccc(OC(F)(F)F)cc2)cc1` [ELQ 271, reference compound] returned a solubility in the series “FaSSIF solubility pH 6.5” of 3.4 µM (≈ 1.4 µg/mL). The half-maximal cytotoxic concentration (CC50) at 72 h in series [5] came out at 20 µM. Besides, the “Mouse microsomal stability T1/2” value in series [1] was above 3.33 h. Moreover, the half-life in series [1] (mouse, liver microsomes, read-out: Mouse microsomal stability T1/2) was above 3.33 h. This molecule showed a solubility (kinetic) in series [2] of 0.15 µM (≈ 0.0617 µg/mL). The IC50 in series [4] (Toxoplasma gondii, EGS strain, read-out: T. gondii Bradyzoite IC50) turned out to be 1 µM; in series [7] (C2B strain (multi-drug resistant, atovaquone resistant)), 0.13 µM; in series [7] (D6 strain (drug sensitive)) it was 0.03 µM; in [7] (TM91C235 strain (multi-drug resistant)) it was 0.09 µM; in series [7] (W2 strain (chloroquine resistant)), 0.1 µM. Further, in series [6], the “Human microsomal stability T1/2” value is 2.87 h and 2.865 h.
`Cc1[nH]c2c(c(=O)c1-c1ccc(Oc3ccc(Cl)cc3)cc1)CCCC2` [JAG050, 3-(4-(4-chlorophenoxy)phenyl)-2-methyl-5,6,7,8-tetrahydroquinolin-4(1H)-one] had a Papp A→B in the series “in vitro” above 10 ×10⁻⁶ cm/s. In the series on MDR1, the efflux ratio is below 1.5. The “toxicity to human foreskin fibroblasts” value in [8] is reported as “no toxicity”. Moreover, the “Mouse liver microsomes T1/2” value in series [1] was 1.142 h. Moreover, the “compound degradation over time” value in the series on RH-YFP (6-day exposure in culture) is listed as “did not appear that the compound was being degraded over time”. Moreover, the “microbicidal effect” value in the series on RH-YFP (RH-YFP, media replaced) was “Neither compound was found to be microbicidal”. In [2] (PBS, pH 7.4, aqueous buffer, kinetic from dmso stock), this molecule had a solubility (kinetic) of 16 µM (≈ 5.85 µg/mL). Also, the “reduction in the number of true cysts and small organisms” value in series [4] (1 μM and 10 μM, EGS) is listed as “statistically significant reduction”. Also, the Pseudocysts is on record as 23.25 ± 10.31 in series [4] (part a, 1 μM); 20.5 ± 2.9 in [4] (part a, 10 μM); 2269 in series [4] (part b, 1 μM); 1921 in [4] (part b, 10 μM). In addition, the Small organisms was found to be 58 ± 24 in series [4] (part a, 1 μM); 31 ± 16 in series [4] (part a, 10 μM); 5086 in [4] (part b, 1 μM); 3018 in series [4] (part b, 10 μM). Further, the “True Cysts” value in series [4] (part a, 1 μM) was 0.25 ± 0.5; in series [4] (part a, 10 μM), 1 ± 0.82; in series [4] (part b, 1 μM) it was 29; in series [4] (part b, 10 μM) it was 88. In addition, the “Human liver microsomes T1/2” value in [6] turned out to be 1.651 h.
